# Test results as given in PubChem BioAssay AID2060335 (Molecular Pharmacology Branch, DTP, NCI, 2025).
# Several values for one entry are separate records, joined by “and”; a condition that tells them apart may be missing. Identical values can stand only once.
# System: DU-145 multicell spheroids with HUVEC/MSC, viability
# Assay: Anticancer human tumor DU-145 cell line growth inhibition [IpAb];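 also: spheroids exposed to agents for seven days before measurement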;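 as to viability, T/C: percent of DMSO vehicle control viability so 100% = untreated level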
# Settings: for viability, T/C: stronger effect = lower value
# How it was run: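 Multi-cell spheroids of 60% tumour cells, 25% HUVEC and 15% MSC in ultra-low-attachment U-bottom wells, treated with agents combined with ipatasertib or abemaciclib. Half-log ranges top out near clinical Cmax, or 10 microM when Cmax is unknown.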
# [1] = curve of first compound, second compound 0.1 µM
# [2] = curve of first compound, second compound 0.316 µM
# [3] = curve of first compound, second compound 1 µM
# [4] = curve of first compound, second compound 3.16 µM
# [5] = curve of first compound, second compound 10 µM
# [6] = second compound 0.1 µM, first compound 0.00949 µM
# [7] = second compound 0.1 µM, first compound 0.03 µM
# [8] = second compound 0.1 µM, first compound 0.0949 µM
# [9] = second compound 0.1 µM, first compound 0.3 µM
# [10] = second compound 0.1 µM, first compound 0.949 µM
# [11] = second compound 0.1 µM, first compound 3 µM
# [12] = second compound 0.316 µM, first compound 0.00949 µM
# [13] = second compound 0.316 µM, first compound 0.03 µM
# [14] = second compound 0.316 µM, first compound 0.0949 µM
# [15] = second compound 0.316 µM, first compound 0.3 µM
# [16] = second compound 0.316 µM, first compound 0.949 µM
# [17] = second compound 0.316 µM, first compound 3 µM
# [18] = second compound 1 µM, first compound 0.00949 µM
# [19] = second compound 1 µM, first compound 0.03 µM
# [20] = second compound 1 µM, first compound 0.0949 µM
# [21] = second compound 1 µM, first compound 0.3 µM
# [22] = second compound 1 µM, first compound 0.949 µM
# [23] = second compound 1 µM, first compound 3 µM
# [24] = curve of first compound, second compound 0.01 µM
# [25] = curve of first compound, second compound 0.0316 µM
# [26] = second compound 0.01 µM, first compound 0.00949 µM
# [27] = second compound 0.01 µM, first compound 0.03 µM
# [28] = second compound 0.01 µM, first compound 0.0949 µM
# [29] = second compound 0.01 µM, first compound 0.3 µM
# [30] = second compound 0.0316 µM, first compound 0.00949 µM
# [31] = second compound 0.0316 µM, first compound 0.03 µM
# [32] = second compound 0.0316 µM, first compound 0.0949 µM
# [33] = second compound 0.0316 µM, first compound 0.3 µM
structure (smiles),measurement,setting,value
Cn1cnc2c(F)c(Nc3ccc(Br)cc3Cl)c(C(=O)NOCCO)cc21 + CC(C)NCC(C(=O)N1CCN(c2ncnc3c2C(C)CC3O)CC1)c1ccc(Cl)cc1,IC50,[1],0.158 µM
same,IC50,[2],< 0.00949 µM
same,IC50,[3],< 0.00949 µM
same,IC50,[4],< 0.00949 µM
same,IC50,[5],< 0.00949 µM
same,"viability, T/C",[6],64.7%
same,"viability, T/C",[7],62.4%
same,"viability, T/C",[8],52.3%
same,"viability, T/C",[9],41.3%
same,"viability, T/C",[10],46.5%
same,"viability, T/C",[11],34.9%
same,"viability, T/C",[12],44.7%
same,"viability, T/C",[13],41.9%
same,"viability, T/C",[14],38.8%
same,"viability, T/C",[15],33.1%
same,"viability, T/C",[16],32.9%
same,"viability, T/C",[17],25%
same,"viability, T/C",[18],31.4%
same,"viability, T/C",[19],30.4%
same,"viability, T/C",[20],27.6%
same,"viability, T/C",[21],23%
same,"viability, T/C",[22],21.5%
same,"viability, T/C",[23],19.2%
same,"viability, T/C","second compound 3.16 µM, first compound 0.00949 µM",18.2%
same,"viability, T/C","second compound 3.16 µM, first compound 0.03 µM",17%
same,"viability, T/C","second compound 3.16 µM, first compound 0.0949 µM",16.5%
same,"viability, T/C","second compound 3.16 µM, first compound 0.3 µM",14.3%
same,"viability, T/C","second compound 3.16 µM, first compound 0.949 µM",14.5%
same,"viability, T/C","second compound 3.16 µM, first compound 3 µM",12%
same,"viability, T/C","second compound 10 µM, first compound 0.00949 µM",16.2%
same,"viability, T/C","second compound 10 µM, first compound 0.03 µM",13.7%
same,"viability, T/C","second compound 10 µM, first compound 0.0949 µM",13.3%
same,"viability, T/C","second compound 10 µM, first compound 0.3 µM",11.8%
same,"viability, T/C","second compound 10 µM, first compound 0.949 µM",11.4%
same,"viability, T/C","second compound 10 µM, first compound 3 µM",10.4%
Cn1cnc2c(F)c(Nc3ccc(Br)cc3Cl)c(C(=O)NOCCO)cc21 + CCN1CCN(Cc2ccc(Nc3ncc(F)c(-c4cc(F)c5nc(C)n(C(C)C)c5c4)n3)nc2)CC1,IC50,[24],0.256 µM
same,IC50,[25],0.213 µM
same,IC50,[1],0.145 µM
same,IC50,[2],0.184 µM
same,IC50,[3],0.0824 µM
same,"viability, T/C",[26],80.8%
same,"viability, T/C",[27],74.8%
same,"viability, T/C",[28],56.1%
same,"viability, T/C",[29],50.7%
same,"viability, T/C","second compound 0.01 µM, first compound 0.949 µM",42.8%
same,"viability, T/C","second compound 0.01 µM, first compound 3 µM",38.6%
same,"viability, T/C",[30],71%
same,"viability, T/C",[31],64.5%
same,"viability, T/C",[32],53.5%
same,"viability, T/C",[33],46.7%
same,"viability, T/C","second compound 0.0316 µM, first compound 0.949 µM",44.5%
same,"viability, T/C","second compound 0.0316 µM, first compound 3 µM",34.4%
same,"viability, T/C",[6],67.4%
same,"viability, T/C",[7],57.6%
same,"viability, T/C",[8],53.8%
same,"viability, T/C",[9],46.3%
same,"viability, T/C",[10],39.9%
same,"viability, T/C",[11],37.1%
same,"viability, T/C",[12],61.5%
same,"viability, T/C",[13],56.3%
same,"viability, T/C",[14],52.8%
same,"viability, T/C",[15],45.9%
same,"viability, T/C",[16],47.4%
same,"viability, T/C",[17],39.2%
same,"viability, T/C",[18],58.1%
same,"viability, T/C",[19],54.1%
same,"viability, T/C",[20],48.8%
same,"viability, T/C",[21],44.4%
same,"viability, T/C",[22],42.1%
same,"viability, T/C",[23],35%
Cn1ncnc1[C@H]1c2n[nH]c(=O)c3cc(F)cc(c23)N[C@@H]1c1ccc(F)cc1 + CC(C)NCC(C(=O)N1CCN(c2ncnc3c2C(C)CC3O)CC1)c1ccc(Cl)cc1,IC50,[1],> 0.1 µM
same,IC50,[2],0.0461 µM
same,IC50,[3],< 0.000316 µM
same,IC50,[4],< 0.000316 µM
same,IC50,[5],< 0.000316 µM
same,"viability, T/C","second compound 0.1 µM, first compound 0.000316 µM",85.8%
same,"viability, T/C","second compound 0.1 µM, first compound 0.001 µM",81.1%
same,"viability, T/C","second compound 0.1 µM, first compound 0.00316 µM",83.2%
same,"viability, T/C","second compound 0.1 µM, first compound 0.01 µM",82.1%
same,"viability, T/C","second compound 0.1 µM, first compound 0.0316 µM",77.9%
same,"viability, T/C","second compound 0.1 µM, first compound 0.1 µM",73.4%
same,"viability, T/C","second compound 0.316 µM, first compound 0.000316 µM",56%
same,"viability, T/C","second compound 0.316 µM, first compound 0.001 µM",57.8%
same,"viability, T/C","second compound 0.316 µM, first compound 0.00316 µM",51.9%
same,"viability, T/C","second compound 0.316 µM, first compound 0.01 µM",53.8%
same,"viability, T/C","second compound 0.316 µM, first compound 0.0316 µM",51.8%
same,"viability, T/C","second compound 0.316 µM, first compound 0.1 µM",47.1%
same,"viability, T/C","second compound 1 µM, first compound 0.000316 µM",34.4%
same,"viability, T/C","second compound 1 µM, first compound 0.001 µM",36.3%
same,"viability, T/C","second compound 1 µM, first compound 0.00316 µM",33.5%
same,"viability, T/C","second compound 1 µM, first compound 0.01 µM",33%
same,"viability, T/C","second compound 1 µM, first compound 0.0316 µM",34.3%
same,"viability, T/C","second compound 1 µM, first compound 0.1 µM",33.6%
same,"viability, T/C","second compound 3.16 µM, first compound 0.000316 µM",24%
same,"viability, T/C","second compound 3.16 µM, first compound 0.001 µM",24.8%
same,"viability, T/C","second compound 3.16 µM, first compound 0.00316 µM",23.9%
same,"viability, T/C","second compound 3.16 µM, first compound 0.01 µM",21.9%
same,"viability, T/C","second compound 3.16 µM, first compound 0.0316 µM",24.5%
same,"viability, T/C","second compound 3.16 µM, first compound 0.1 µM",23.3%
same,"viability, T/C","second compound 10 µM, first compound 0.000316 µM",17.7%
same,"viability, T/C","second compound 10 µM, first compound 0.001 µM",20.1%
same,"viability, T/C","second compound 10 µM, first compound 0.00316 µM",19.6%
same,"viability, T/C","second compound 10 µM, first compound 0.01 µM",19.1%
same,"viability, T/C","second compound 10 µM, first compound 0.0316 µM",18.1%
same,"viability, T/C","second compound 10 µM, first compound 0.1 µM",19.5%
CC(=O)c1c(C)c2cnc(Nc3ccc(N4CCNCC4)cn3)nc2n(C2CCCC2)c1=O,"viability, T/C",compound 0.000949 µM,104% and 89.4%
same,"viability, T/C",compound 0.003 µM,102% and 98.4%
same,"viability, T/C",compound 0.00949 µM,99.7% and 96.5%
same,"viability, T/C",compound 0.03 µM,103% and 93.6%
same,"viability, T/C",compound 0.0949 µM,99.4% and 97.1%
same,"viability, T/C",compound 0.3 µM,90.7% and 80.9%
same,IC50,curve of compound,> 0.3 µM
CC(=O)c1c(C)c2cnc(Nc3ccc(N4CCNCC4)cn3)nc2n(C2CCCC2)c1=O + CCN1CCN(Cc2ccc(Nc3ncc(F)c(-c4cc(F)c5nc(C)n(C(C)C)c5c4)n3)nc2)CC1,IC50,[24],> 0.3 µM
same,IC50,[25],> 0.3 µM
same,IC50,[1],> 0.3 µM
same,IC50,[2],> 0.3 µM
same,IC50,[3],> 0.3 µM
same,"viability, T/C","second compound 0.01 µM, first compound 0.000949 µM",88.5%
same,"viability, T/C","second compound 0.01 µM, first compound 0.003 µM",90.5%
same,"viability, T/C",[26],87.2%
same,"viability, T/C",[27],90.4%
same,"viability, T/C",[28],90.2%
same,"viability, T/C",[29],84.8%
same,"viability, T/C","second compound 0.0316 µM, first compound 0.000949 µM",93.7%
same,"viability, T/C","second compound 0.0316 µM, first compound 0.003 µM",84.9%
same,"viability, T/C",[30],90%
same,"viability, T/C",[31],85.4%
same,"viability, T/C",[32],83.4%
same,"viability, T/C",[33],80.9%
same,"viability, T/C","second compound 0.1 µM, first compound 0.000949 µM",78.6%
same,"viability, T/C","second compound 0.1 µM, first compound 0.003 µM",76.9%
same,"viability, T/C",[6],77.9%
same,"viability, T/C",[7],76.9%
same,"viability, T/C",[8],73.4%
same,"viability, T/C",[9],76.7%
same,"viability, T/C","second compound 0.316 µM, first compound 0.000949 µM",74.5%
same,"viability, T/C","second compound 0.316 µM, first compound 0.003 µM",72%
same,"viability, T/C",[12],75.5%
same,"viability, T/C",[13],75%
same,"viability, T/C",[14],71.3%
same,"viability, T/C",[15],66.6%
same,"viability, T/C","second compound 1 µM, first compound 0.000949 µM",58.9%
same,"viability, T/C","second compound 1 µM, first compound 0.003 µM",61.2%
same,"viability, T/C",[18],61.6%
same,"viability, T/C",[19],60.4%
same,"viability, T/C",[20],58%
same,"viability, T/C",[21],60.2%
